Results reported in PMC10180065, “Mechanistic Studies of Arene–Ruthenium(II) Complexes with Carbothioamidopyrazoles as Alternative Cancer Drugs” (Molecules, 2023).

How the values were obtained:
[1] = tested on: human microvascular endothelial cell line HMEC1; assay: MTT cytotoxicity, normal endothelial cells HMEC1; format: cell-based; settings: for IC50: HMEC1 normal endothelial cells, 48 h incubation, read-out: Cytotoxic effect, IC50; for IC50 for HMEC-1 higher than for cancer cells (selectivity): HMEC-1 vs cancer cells
Protocol: (§1) Cytotoxicity was evaluated against fifteen adherent human cancer cell lines using the MTT test: colorectal adenocarcinoma cells Caco2 (ATCC® HTB-37™), colorectal adenocarcinoma cells HT29 (ATCC® HTB-38™), colon colorectal carcinoma HCT116 (ATCC® CCL-247™), colon adenocarcinoma COLO205 (ATCC® CCL-222™), colorectal adenocarcinoma SW620 (ATCC® CCL-227™), colorectal adenocarcinoma grade IV LoVo (ATCC® CCL-229™), hepatocellular carcinoma Hep 3b (ATCC® HB-8064™), endometrium adenocarcinoma HEC1A (ATCC® HTB-112™), Ishikawa (99040201; Sigma–Aldrich Sigma, St. Louis, MO, USA), cervical adenocarcinoma cells HeLa (ATCC® CCL-2™), lung epithelial carcinoma A549 (ATCC® CRM-CCL-185™), breast epithelial adenocarcinoma cell positive for estrogen and progesterone receptors MCF7 (ATCC® HTB-22™) and negative for expression of estrogen receptor HCC38 (ATCC® CRL-2314™), acute promyelocytic leukemia HL-60 (ATCC® CCL-240™), skin melanoma WM115 (ATCC® CRL-1676™), and 1 suspension cancer cell line: acute lymphoblastic leukemia NALM6 (purchased from the German Collection of Microorganisms and Cell Cultures). HT29, NALM6, HCC-38 and HL-60 cells were cultured in RPMI 1640 medium (Thermo Fisher Scientific, Waltham, MA, USA) supplemented with 10% fetal bovine serum and antibiotic (gentamicin 25 μg ml^−1) (Gibco, Grand Island, New York, NY, USA). For the remaining tumor cell lines, Dulbecco’s minimal essential medium (DMEM, Lonza, Visp, Switzerland) supplemented with 10% fetal bovine serum and antibiotic instead of RPMI 1640 was used. In addition, Human Microvascular Endothelial Cells (HMEC1), which were obtained from the American Type Culture Collection (Manassas, VA, USA), were used as a model of normal cells. HMEC-1 were cultured in MCDB131 medium (Corning Life Sciences, Corning, NY, USA), supplemented with 10% fetal bovine serum, 10 ng/mL Epidermal Growth Factor (Millipore, Burlington, MA, USA) and 10 mM glutamine (Corning Life Sciences). All cells were grown at 37 °C in humidified atmosphere of 5% CO2 in air. The exponential growth of cells was maintained by regular passaging at 90% confluence three times a week using 0.025% trypsin/EDTA (Gibco, Grand Island, New York, NY, USA).
(§2) The cytotoxicity was tested by a standard MTT [3-(4,5-dimethylthiazol-2-yl)-2,5-diphenyltetrazolium bromide] (Sigma, St. Louis, MO, USA) microplate cell viability assay. The anticancer activity of the investigated compounds was evaluated in vitro on the basis of their ability to inhibit the proliferation of various cancer cells. Exponentially growing cells were seeded a day before the experiment into a 96-well microplate (Nunc, Roskilde, Denmark) at a density up to 6–8 × 10^3 cells/mL (depending on the cell line) and exposed to the test compounds at a wide range of concentrations for 48 h. Subsequently, various concentrations of the studied compounds (10^−7–10^−5 M) freshly prepared in DMSO (final concentration of <0.1% DMSO) and diluted with complete culture medium were added. After 48 h incubation, the cells were immediately subjected to a cell viability assay. At this time point, the number of viable cells in each well was estimated by the MTT test. Briefly, 50 µL (5 mg/mL final concentration) of MTT was added to each microplate well. This procedure was then followed by a three- to four-hour incubation at 37 °C. After incubation, MTT solution was replaced with 100 µL DMSO/well, which solubilized the formazan crystals formed by the dehydrogenases of metabolically active cells. Purple formazan absorbance was measured spectrophotometrically at 570 nm.

A549 = assay: MTT cytotoxicity, A549; format: cell-based, human; settings: 48 h incubation, read-out: Cytotoxic effect, IC50
Protocol: as §1, §2

HCC38 = assay: MTT cytotoxicity, HCC38; format: cell-based, human; settings: 48 h incubation, read-out: Cytotoxic effect, IC50
Protocol: as §1, §2

WM115 = assay: MTT cytotoxicity, WM115; format: cell-based, human; settings: 48 h incubation, read-out: Cytotoxic effect, IC50
Protocol: as §1, §2

Caco2 = assay: MTT cytotoxicity, Caco2; format: cell-based, human; settings: 48 h incubation, read-out: Cytotoxic effect, IC50
Protocol: as §1, §2

Hep 3b = assay: MTT cytotoxicity, Hep 3b; format: cell-based, human; settings: 48 h incubation, read-out: Cytotoxic effect, IC50
Protocol: as §1, §2

LoVo = assay: MTT cytotoxicity, LoVo; format: cell-based, human; settings: 48 h incubation, read-out: Cytotoxic effect, IC50
Protocol: as §1, §2

Colo205 = assay: MTT cytotoxicity, Colo205; format: cell-based, human; settings: 48 h incubation, read-out: Cytotoxic effect, IC50
Protocol: as §1, §2

NALM6 = assay: MTT cytotoxicity, NALM6; format: cell-based, human; settings: 48 h incubation, read-out: Cytotoxic effect, IC50
Protocol: as §1, §2

HL60 = assay: MTT cytotoxicity, HL60; format: cell-based, human; settings: 48 h incubation, read-out: Cytotoxic effect, IC50
Protocol: as §1, §2

HEC1A [2] = assay: MTT cytotoxicity, HEC1A; format: cell-based, human; settings: 48 h incubation, read-out: Cytotoxic effect, IC50
Protocol: as §1, §2

Ishikawa = assay: MTT cytotoxicity, Ishikawa; format: cell-based, human; settings: 48 h incubation, read-out: Cytotoxic effect, IC50
Protocol: as §1, §2

MCF7 = assay: MTT cytotoxicity, MCF7; format: cell-based, human; settings: 48 h incubation, read-out: Cytotoxic effect, IC50
Protocol: as §1, §2

SW620 = assay: MTT cytotoxicity, SW620; format: cell-based, human; settings: 48 h incubation, read-out: Cytotoxic effect, IC50
Protocol: as §1, §2

HEC1A [3] = assay: Mitochondrial potential, JC-1 probe, HEC1A; format: cell-based, human; settings: IC50 concentration
Protocol: Cells (10 × 10^3/well) were seeded in black 96-well plates and grown for 24 h to reach the log phase. […] After removing the medium, the cell monolayer was washed twice with PBS solution and 50 μL of the JC-1 probe at a final concentration of 5 μM was added to the wells of the plate. The cells were incubated with the dye for 30 min in a CO2 incubator. Subsequently, the changes in the fluorescence of monomers (λex = 485 nm and λem = 525 nm) and aggregates (λex = 530 nm and λem = 590 nm) using JC-1 were monitored. The results of the tested trials were presented as the ratio of fluorescence of aggregates and JC1 monomers as a percentage of control values, which was assumed to be 100%.

HT29 = assay: MTT cytotoxicity, HT29; format: cell-based, human; settings: 48 h incubation, read-out: Cytotoxic effect, IC50
Protocol: as §1, §2

PARP1 = assay: Cleaved PARP level (ELISA), WM115 cells; format: cell-based, human; settings: WM115, 24 h at IC50 concentration
Protocol: Cells (1 × 10^6) were seeded in 35 mm dishes and cultured for 24 h in the appropriate medium until they reached log phase growth. […] After incubation, the medium was removed, the cells were washed with PBS solution and trypsinized. The harvested cell pellet was lysed in RIPA buffer (50 mM Tris-HCL, pH 8.0, with 150 mM sodium chloride, 1.0% Igepal CA-630 (NP-40), 0.5% sodium deoxychlorate, and 0.1% sodium dodecyl sulfate) with protease inhibitor (phenylmethylsulfonyl fluoride) (Sigma-Aldrich Sigma, St. Louis, MO, USA). The level of cleaved PARP was estimated using the PARP Cleaved [214/215] ELISA kit (Invitrogen, Waltham, MA, USA) according to the protocol described in the manufacturer’s instructions.

Lipophilicity by RP-TLC = format: physicochemical; set-up: key: RM = log(1/Rf − 1), Rf = a/b; settings: eluent AcCN: H2O at 30–70% v/v, 22 °C
Protocol: All the experimental solutions of standard substances (0.1 mg/mL) were prepared by dissolving ligands (1a–1d) or ruthenium complexes (2a/3a–2d/3d) in ethanol. Commercially-available octadecyl-modified silica aluminum sheets (20 × 20 cm) were cut into 5 × 10 cm plates. The plates were manually spotted with 1.0 μL of freshly prepared solutions using automatic pipets, 5 mm from each edge. The chromatograms for all compounds (1a/2a/3a–1d/2d/3d) were developed using a horizontal developing chamber and the solvent migration distance was about 4.5 cm. The plates were visually inspected under UV light at 254 nm. Each zone was clearly marked and its distance was manually measured. The RP-TLC analyses of lipophilicity were performed at ambient temperature (22 °C). In this experiment, all measurements were performed in triplicate and the obtained results were used in further calculations. The acetonitrile and water mixtures for ligands 1a–1d and arene–ruthenium(II) complexes 2a/3a–2d/3d were used as mobile phases, with […] content increasing in the range of 30–70% v/v, at 5% intervals. Values of the chromatographic retention coefficient Rf (as shown Formula (1)) and RM (as shown Formula (2)), based on received chromatograms, were calculated and converted as follows:(1) Rf=a/b (2) RM=log1/Rf−1

Hela = assay: MTT cytotoxicity, Hela; format: cell-based, human; settings: 48 h incubation, read-out: Cytotoxic effect, IC50
Protocol: as §1, §2

human cancer cell lines = assay: MTT cytotoxicity, summary statements over the cancer cell line panel; format: cell-based; settings: read-out: IC50 for seven (2c) and six (3c) cancer cell lines
Protocol: Cytotoxicity was evaluated against fifteen adherent human cancer cell lines using the MTT test: colorectal adenocarcinoma cells Caco2 (ATCC® HTB-37™), colorectal adenocarcinoma cells HT29 (ATCC® HTB-38™), colon colorectal carcinoma HCT116 (ATCC® CCL-247™), colon adenocarcinoma COLO205 (ATCC® CCL-222™), colorectal adenocarcinoma SW620 (ATCC® CCL-227™), colorectal adenocarcinoma grade IV LoVo (ATCC® CCL-229™), hepatocellular carcinoma Hep 3b (ATCC® HB-8064™), endometrium adenocarcinoma HEC1A (ATCC® HTB-112™), Ishikawa (99040201; Sigma–Aldrich Sigma, St. Louis, MO, USA), cervical adenocarcinoma cells HeLa (ATCC® CCL-2™), lung epithelial carcinoma A549 (ATCC® CRM-CCL-185™), breast epithelial adenocarcinoma cell positive for estrogen and progesterone receptors MCF7 (ATCC® HTB-22™) and negative for expression of estrogen receptor HCC38 (ATCC® CRL-2314™), acute promyelocytic leukemia HL-60 (ATCC® CCL-240™), skin melanoma WM115 (ATCC® CRL-1676™), and 1 suspension cancer cell line: acute lymphoblastic leukemia NALM6 (purchased from the German Collection of Microorganisms and Cell Cultures). […]
The cytotoxicity was tested by a standard MTT [3-(4,5-dimethylthiazol-2-yl)-2,5-diphenyltetrazolium bromide] […] The anticancer activity of the investigated compounds was evaluated in vitro on the basis of their ability to inhibit the proliferation of various cancer cells. […]

[4] = pH dependent stability of the complexes (UV–Vis); format: physicochemical; settings: 24 h and 48 h
Protocol: The stability measurements were performed on a UV 1800 Shimadzu spectrophotometer (Kyoto, Japan) at room temperature. The complexes 2d and 3d were tested for the stabilities in buffer Na2HPO4 (pH 4 and 8). UV–Vis spectra were recorded hourly for 48 h at 22 °C. The spectra were recorded in the range of 200–800 nm over a time course of 0, 24, and 48 h.

SMILES	IC50 [1] [µM]	IC50 for HMEC-1 higher than for cancer cells (selectivity) [1]	IC50 (A549) [µM]	IC50 (HCC38) [µM]	IC50 (WM115) [µM]	IC50 (Caco2) [µM]	IC50 (Hep 3b) [µM]	IC50 (LoVo) [µM]	IC50 (Colo205) [µM]	IC50 (NALM6) [µM]	IC50 (HL60) [µM]	IC50 (HEC1A [2]) [µM]	IC50 (Ishikawa) [µM]	IC50 (MCF7) [µM]	IC50 (SW620) [µM]	decrease in mitochondrial potential (JC-1) (HEC1A [3]) [%]	IC50 (HT29) [µM]	increase in level of PARP1 degradation compared to controls (PARP1)	Lipophilicity, RM (Lipophilicity by RP-TLC)	IC50 (Hela) [µM]	also measured
CCc1cc(CC)n(C(N)=S)n1.Cc1ccc(C(C)C)cc1.F[P-](F)(F)(F)(F)F.[Cl-].[Ru+2] [3b]	135 ± 6.7	3–5 times	162 ± 7.9	> 200	51.7 ± 5.3	82.4 ± 8.4	62.4 ± 2.7	99.1 ± 9.4	91.6 ± 1.6	18.5 ± 2.3	52.9 ± 2.1	40.1 ± 2.1	121 ± 3.7	132 ± 5.3	78.8 ± 7.4	~50	123 ± 3.7	~140%	2.73	101 ± 6.7	
Cc1ccc(C(C)C)cc1.NC(=S)n1nc(-c2ccccc2)cc1O.[Cl-].[Cl][Ru+] [2c]	192 ± 6.5	3–5 times	> 200	> 200	26.7 ± 3.3	> 200	104 ± 4.4	42.6 ± 3.2	32.6 ± 3.3	11.7 ± 1.6	86.5 ± 8	24.5 ± 0.9	142 ± 7.4	83.4 ± 7.3	49.4 ± 1.2	~50	29.5 ± 2.1		2.27	124 ± 7.2	IC50 (human cancer cell lines): < 50 µM
Cc1cc(O)n(C(N)=S)n1.Cc1ccc(C(C)C)cc1.[Cl-].[Cl][Ru+] [2d]	163 ± 5.9	3–5 times	> 200	> 200	8 ± 0.9	> 200	> 200	> 200	> 200	> 200	> 200	67.8 ± 6.1	100 ± 6.7	> 200	> 200		168 ± 7.5	approximately 115%	1.64	111 ± 1.7	Stability, UV–Vis absorption maxima ([4]; pH 4 buffer): did not change; Stability, UV–Vis absorption maxima ([4]; pH 8 buffer): loss absorption
